Results reported in paper PMC11493442, “Sensory-Motor Neuropathy in Mfn2 T105M Knock-in Mice and Its Reversal by a Novel Piperine-Derived Mitofusin Activator” (The Journal of Pharmacology and Experimental Therapeutics, 2024).
Read-outs that look alike come from different tables or passages of the source. Values belong to the compound of their own block, whether it stands above or below them.

Legend:
[1] = p.o. 50 mg/kg, ref Dang et al., cited from earlier work
[2] = ref Dang et al., 2021 (cpd 5b); cited from earlier work
[3] = ref Dang et al., cited from earlier work
mitofusins = system: mitofusins; set-up: method as in Zhang et al., 2022; details: ref Zhang et al., 2022; cited from earlier work
[4] = set-up: method as in earlier work; details: ref Piyachaturawat et al., 1983, Bhardwaj et al., 2002, Lee et al., 2005, McNamara et al.; cited from earlier work
[5] = system: Mfn2 T105M KI mouse sciatic nerve axons; test: Ex vivo mitochondrial motility in sciatic nerve axons after oral dosing; details: 100 mg/kg by oral gavage
Procedure: (§1) Mitochondrial motility in neuronal processes of cultured reprogrammed human motor neurons ([Abernathy et al., 2017]; [Dang et al., 2023]), mouse DRG neurons transduced with adeno-Mito-DS-Red2, or axons of ex vivo mouse sciatic nerves stained with tetramethyl rhodamine ester was measured using time-lapse confocal microscopy on a Nikon Eclipse Ti2 confocal microscope as described ([Franco et al., 2016], [2020]; [Rocha et al., 2018]). Mouse DRG neurons and reprogrammed human CMT2A motor neurons were transduced with adeno-Mito-DS-Red2 to visualize mitochondria; ex vivo sciatic nerve mitochondria were labeled with tetramethyl rhodamine ester (200 nM for 30 minutes at 37° C). Time-lapse imaging was carried out using confocal microscopy on a Nikon Eclipse Ti2 confocal microscope with 1 frame captured every 5 seconds for 180 frames (15 minutes). Kymographs and quantitative data were generated using the ImageJ plug-in: Velocity_Measurement_Tool.

Mfn2 T105M knock-in mice = test: CMT2A phenotype reversal in Mfn2 T105M knock-in mice; assay type: in vivo, mouse
Procedure: The creation of mice with human CMT2A mutations MFN2 T105M and M376V CRISPR-engineered into the mouse Mfn2 gene has been reported, as was absence of a cardiac phenotype ([Franco et al., 2023]). Neuromuscular phenotyping was performed for the current studies (vide infra). Results of male and female mice were combined as there were no observed sex differences.
Mfn2 T105M knock-in mice underwent evaluation at 10-week intervals to establish basal phenotype progression. 8015 or 8015-P2 treatment studies were performed after final baseline evaluations at 50 weeks of age. 8015 (transgenic MFN2 T105M model) or 8015-P2 (Mfn2 T105M knock-in model) were administered at doses of 50 mg/kg by oral gave once daily in the morning. Repeat phenotyping was performed after 4 and 8 weeks of treatment (transgenic model) or 6 weeks of treatment (knock-in model), after which the mice were killed by anesthesia overdose and tissue specimens obtained for histologic and ultrastructural studies, as described ([Franco et al., 2020]).
Rotarod studies were performed on mice initially familiarized and trained on the Rotarod (Ugo Basile, Gemonio, VA, Italy;# 47650) at a speed of 5 rpm. For evaluation, the initial speed of 5 rpm accelerated to 40 rpm over 120 seconds and then maintained 40 rpm for a maximum of 180 seconds. For each trial, five tests were performed with at least 5 minutes rest between each test. No trends were observed from test 1 to test 5. In total, three trials were performed over sequential days to account for variabilities of the Rotarod test and between days. For each mouse, the latency (time to falling off) of replicate tests for each trial day were averaged, and results of the three independent trials were averaged to obtain a result for that condition (i.e., age, genotype, and/or drug treatment).
Neuroelectrophysiologic recordings of hindlimb compound muscle action potentials (CMAP) were performed with a Viasys Healthcare Nicolet Biomedical instrument (Middleton, WI, USA Cat:# OL060954) using Viking Quest version 11.2 software. Nerve stimulation used 3.9 mV pulses of 0.002 milliseconds duration administered through a needle electrode placed at the proximal sciatic nerve through a posterior lumbar approach. Muscle depolarization was monitored using a loop electrode placed around the mid distal hindlimb, corresponding to the greatest girth of the tibialis and gastrocnemius muscles.
An inverted grid suspension test was used to assess grip strength and coordination. Mice were placed on a grid, which was slowly inverted no higher than three feet above a padded surface; the time to falling off (latency) was recorded up to a maximum of 500 seconds. Each mouse underwent at least three independent studies on different days, and the longest latency time was used ([Aartsma-Rus and van Putten, 2014]). Obese mice (>150% of mean weight for that condition) were preemptively excluded.
Mechanical sensitivity was measured using the von Frey test ([Martinov et al., 2013]). Mice were placed in a plexiglass chamber with a mesh grid floor and allowed to accommodate for at least 20 minutes or until exploratory behavior had ceased. The response to mechanical stimulation of hind paws used IITC Supertips filaments and an electronic von Frey anesthesiometer (IITC Life Science, Inc. Woodland Hills CA, USA). Filaments were applied to the footpads with a gradual increase in pressure until paw withdrawal was evoked; the maximum applied force was recorded. Paws of the left and right foot were alternately measured, with at least six measurements taken per animal and the results averaged for each mouse.
Confocal imaging of gastrocnemius myocyte cross-sectional area (wheat germ agglutinin staining) and synapse density (α-bungarotoxin staining) was performed as described ([Franco et al., 2020]). […]

Plasma PK in rats = assay type: in vivo, rat; details: oral administration
Procedure: Routine in vitro pharmacokinetic (PK) profiling of 8015 and its enantiomers (8015-P1 and 8015-P2) was performed at WuXi Apptec Co., Ltd. (Shanghai, China) using standard methods as described ([Dang et al., 2020], [2021]). In vivo PK profiling was performed by Frontage Laboratories (Exton PA, USA). The vehicle used for intravenous and oral PK studies was 12% sulfobutylether-β-cyclodextrin (SBE-β-CD; CyDex Pharmaceutical Inc., Lenexa KS, USA) in sterile water.

Mfn2 null MEF cells = test: Mitochondrial elongation (fusogenicity, mitochondrial aspect ratio) in Mfn2 null MEFs; assay type: cell-based, mouse
Procedure: Mitochondrial polarization based on tetramethyl rhodamine ester fluorescence and fusogenicity based on an increase in mitochondrial aspect ratio were measured in static confocal images of live cells using methods that we have extensively validated ([Franco et al., 2016], [2020]; [Rocha et al., 2018]; [Zhang et al., 2022]). As necessary, red, green, and blue brightness, or rarely contrast, were adjusted in individual confocal images prior to merging to enhance clarity. All adjustments were performed across the entire image.
Mitochondrial elongation was assessed in Mfn2 null MEF cells after treatment with compounds at concentrations ranging from 0.5 nM–10 μM in DMSO for 14 h. Mitochondria were stained with MitoTracker Orange, and nuclei were costained with Hoechst before confocal microscope imaging; at least three independent experiments were performed. Mitochondrial aspect ratio (length/width) of at least 10 cells was measured for each experiment using National Institutes of Health ImageJ. […] Concentration-response curves were generated using a sigmoidal model in Prism 8 software. EC50 and Emax values and their variances were calculated from interpolated data of all replicate experiments in a series.

[6] = Enterohepatic recirculation study: oral PK without and with activated charcoal; assay type: in vivo, mouse; details: mice; for AUC(0-t) / half-life: mouse, plasma, po, 5 mg/kg; for half-life: read-out: Plasma t1/2 (converted)
Procedure: Enterohepatic recirculation (EHR) of 8015-P2 was tested by fasting mice overnight prior to administration of the compound (5 mg/kg) by oral gavage. 1 hour later, activated charcoal (2 g/kg) was administered by oral gavage to half of the mice; all mice were fed 2 hours after 8015-P2 dosing to induce gall bladder emptying. […] Areas under the concentration curves were calculated from the raw data; plasma half-times were estimated by linear regression of the second, slower elimination phase.

[7] = system: Mfn2 T105M KI DRG neurons; test: Mitochondrial motility in DRG neurons from Mfn2 T105M KI mice; assay type: cell-based, mouse; details: 100 nM for 48 hours
Procedure: DRG neurons were isolated from ∼8-week-old Mfn2 T105M motor neuron transgenic mice, Mfn2 T105M KI mice, or Mfn1 fl/fl/Mfn2 fl/fl mice and cultured as described ([Dang et al., 2023]).
as §1

[8] = 50 mg/kg once daily by oral gavage for 6 weeks
[9] = 5 mg/kg oral, with vs. without charcoal
[10] = 5 mg/kg oral, activated charcoal by gavage 1 hour after dosing

Compound: O=C(N[C@H]1CC[C@H](O)CC1)C1CC1CCCc1ccccc1 (stereo partly drawn) [CPR1-B, N-(trans-4-hydroxycyclohexyl)-2-(3-phenylpropyl)cyclopropane-1-carboxamide]
- Bioavailability ([1]; 2021 (cpd 5b)): 59%
- Aqueous solubility (pH 7.4) [2]: <10 uM
- calc logP ([3]; 2021 (cpd 5b)): 3.09

Compound: O=C(NC1CC1CCCc1ccccc1)[C@H]1CC[C@H](O)CC1 (stereo partly shown) [Cpd 10]
- Mitofusin activator activity (mitofusins): functionally inactive

Compound: O=C(/C=C/C=C/c1ccc2c(c1)OCO2)N1CCCCC1 [piperine]
- Cytotoxicity [4]: can be cytotoxic at higher concentrations
- Mitofusin activation potency (in words) (mitofusins): approximately the same potency as phenylhexanamide compounds

Compound: O=C(CCCCCc1ccccc1)N[C@H]1CC[C@H](O)CC1 [trans-MiM111, N-(trans-4-hydroxycyclohexyl)-6-phenylhexanamide]
- Bioavailability ([1]; 2020 (cpd 13b)): 61%
- calc logP ([3]; 2020 (cpd 13b)): 3.22

- Waxing and waning of plasma levels (Plasma PK in rats): not observed
- EC50 (Mfn2 null MEF cells; Mus musculus, MEF, 95% confidence limits 439 - 863PM, n = 4, read-out: EC50 as a fusogenic factor (fusion of Mfn2-deficient mitochondria)): 623 pM
- Decrease of AUClast by charcoal [6, 9]: 17%
- Decrease of t1/2 by charcoal [6, 9]: 36%
- Enterohepatic recirculation ([6]; oral): undergoes enterohepatic recirculation
- AUC(0-t) [6, 10]: 739 ng·h/mL
- half-life [6, 10]: 1.21 h
- AUC(0-t) ([6]; 5 mg/kg oral, without charcoal): 887 ng·h/mL
- half-life ([6]; 5 mg/kg oral, without charcoal): 1.88 h
- Mitochondrial motility in DRG neuronal processes [7]: corrected
Compound: O=C(NC1CC1CCCCc1ccccc1)C1CCC(O)CC1 (stereo not shown) [Compound 8015-P2]
- Mitochondrial motility in sciatic nerve axons, ex vivo [5]: corrected mitochondrial dysmotility
- Motor neuron functional metrics (Rotarod latency, inverted grasp) (Mfn2 T105M knock-in mice; [8]): normalized
- Neuroelectrophysiological abnormality (CMAP amplitude) (Mfn2 T105M knock-in mice; [8]): normalized
- Sensory neuron metric (von Frey foot pad mechanical sensitivity) (Mfn2 T105M knock-in mice; [8]): normalized
- Gastrocnemius myocyte cross-sectional area (Mfn2 T105M knock-in mice; 6 weeks of administration): reversed
- Neuromuscular synapse density (Mfn2 T105M knock-in mice; 6 weeks of administration): reversed
- Proportion of tibialis nerve neurons with small axonal areas (lowest quartile) (Mfn2 T105M knock-in mice; 6 weeks of administration): reversed
- Mitofusin activator potency (in words) (Mfn2 null MEF cells): subnanomolar potency
- Comparative fusogenic potency of the two 8015 isomers (Mfn2 null MEF cells; Mfn2-deficient mitochondria, n = 4 each): markedly more potent and effective than 8015-P1
- Fold greater fusogenic potency versus comparators (Mfn2 null MEF cells; versus trans-MiM111 or CPR1-B / previously described mitofusin activators): ~10 fold
